Reference: ChEMBL document CHEMBL1144455, “A small molecule-kinase interaction map for clinical kinase inhibitors” (Nat Biotechnol, 2005)

Tests used:
[1] = biological target: Serine/threonine-protein kinase PAK 4 (Homo sapiens, UniProt O96013)
Aurora kinase C = biological target: T1, Aurora kinase C (Homo sapiens, UniProt Q9UQB9)
T1 sequence (Q9UQB9 whole entry): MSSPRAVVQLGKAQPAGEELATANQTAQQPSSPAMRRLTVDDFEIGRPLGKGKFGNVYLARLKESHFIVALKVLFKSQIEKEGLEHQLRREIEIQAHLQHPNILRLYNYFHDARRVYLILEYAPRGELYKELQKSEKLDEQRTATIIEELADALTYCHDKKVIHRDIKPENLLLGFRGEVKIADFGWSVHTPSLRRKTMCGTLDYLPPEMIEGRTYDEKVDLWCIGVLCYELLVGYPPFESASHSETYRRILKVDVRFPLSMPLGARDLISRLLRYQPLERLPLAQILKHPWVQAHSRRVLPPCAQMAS

[2] = biological target: Tyrosine-protein kinase Yes (Homo sapiens, UniProt P07947)
Chain of Tyrosine-protein kinase Yes (P07947 whole entry): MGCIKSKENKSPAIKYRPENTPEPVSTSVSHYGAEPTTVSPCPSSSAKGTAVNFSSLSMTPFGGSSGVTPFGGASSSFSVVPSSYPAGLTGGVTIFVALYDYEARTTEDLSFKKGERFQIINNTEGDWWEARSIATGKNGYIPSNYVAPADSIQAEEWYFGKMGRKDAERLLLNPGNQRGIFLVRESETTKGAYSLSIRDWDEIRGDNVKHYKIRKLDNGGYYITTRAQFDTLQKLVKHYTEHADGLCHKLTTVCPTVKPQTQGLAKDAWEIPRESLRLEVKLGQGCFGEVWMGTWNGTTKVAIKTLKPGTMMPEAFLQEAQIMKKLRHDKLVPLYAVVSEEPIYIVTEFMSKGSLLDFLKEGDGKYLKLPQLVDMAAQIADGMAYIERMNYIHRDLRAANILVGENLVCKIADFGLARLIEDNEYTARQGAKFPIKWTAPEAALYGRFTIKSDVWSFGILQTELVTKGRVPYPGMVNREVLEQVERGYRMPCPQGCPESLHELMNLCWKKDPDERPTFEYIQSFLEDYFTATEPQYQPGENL

[3] = biological target: Tyrosine-protein kinase Fyn (Homo sapiens, UniProt P06241)
[4] = biological target: T2, Mitogen-activated protein kinase kinase kinase 5 (Homo sapiens, UniProt Q99683)
T2 sequence (Q99683 whole entry): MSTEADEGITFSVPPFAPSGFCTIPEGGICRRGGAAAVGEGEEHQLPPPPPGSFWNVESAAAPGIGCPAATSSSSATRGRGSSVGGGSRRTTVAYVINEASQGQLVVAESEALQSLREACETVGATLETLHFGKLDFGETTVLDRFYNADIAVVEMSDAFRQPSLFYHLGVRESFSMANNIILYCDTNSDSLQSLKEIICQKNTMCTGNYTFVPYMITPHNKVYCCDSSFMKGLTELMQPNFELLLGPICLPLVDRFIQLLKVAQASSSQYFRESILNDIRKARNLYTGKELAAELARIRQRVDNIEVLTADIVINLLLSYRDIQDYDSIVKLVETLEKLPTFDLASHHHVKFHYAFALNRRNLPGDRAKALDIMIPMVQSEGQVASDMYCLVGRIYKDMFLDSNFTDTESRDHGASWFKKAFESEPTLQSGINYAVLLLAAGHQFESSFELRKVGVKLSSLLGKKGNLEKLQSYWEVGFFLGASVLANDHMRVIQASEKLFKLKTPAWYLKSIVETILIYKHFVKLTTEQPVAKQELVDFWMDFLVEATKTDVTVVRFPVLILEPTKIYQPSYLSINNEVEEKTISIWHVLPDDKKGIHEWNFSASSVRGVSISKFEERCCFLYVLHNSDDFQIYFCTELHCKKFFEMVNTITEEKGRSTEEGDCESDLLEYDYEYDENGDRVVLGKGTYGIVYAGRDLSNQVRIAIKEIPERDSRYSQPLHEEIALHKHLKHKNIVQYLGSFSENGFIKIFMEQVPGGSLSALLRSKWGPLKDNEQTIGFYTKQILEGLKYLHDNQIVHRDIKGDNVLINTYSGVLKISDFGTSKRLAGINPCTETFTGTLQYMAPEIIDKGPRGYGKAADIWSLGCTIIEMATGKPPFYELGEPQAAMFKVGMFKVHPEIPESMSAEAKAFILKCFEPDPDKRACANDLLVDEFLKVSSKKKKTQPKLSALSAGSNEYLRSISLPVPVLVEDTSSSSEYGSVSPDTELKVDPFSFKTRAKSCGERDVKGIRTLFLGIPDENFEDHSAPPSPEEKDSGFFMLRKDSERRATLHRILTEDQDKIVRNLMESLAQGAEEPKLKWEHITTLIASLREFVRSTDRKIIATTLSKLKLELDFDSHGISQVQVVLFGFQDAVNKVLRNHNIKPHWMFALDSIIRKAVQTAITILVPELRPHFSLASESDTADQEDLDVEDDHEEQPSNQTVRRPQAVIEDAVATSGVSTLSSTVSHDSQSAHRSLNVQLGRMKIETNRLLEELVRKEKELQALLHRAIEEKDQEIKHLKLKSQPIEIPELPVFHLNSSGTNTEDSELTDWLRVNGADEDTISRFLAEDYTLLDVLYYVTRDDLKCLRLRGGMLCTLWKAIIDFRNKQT

[5] = biological target: Mitogen-activated protein kinase kinase kinase kinase 5 (Homo sapiens, UniProt Q9Y4K4)
Ephrin type-A receptor 5 = Ephrin type-A receptor 5 (Homo sapiens, UniProt P54756)
Chain of Ephrin type-A receptor 5 (P54756 whole entry): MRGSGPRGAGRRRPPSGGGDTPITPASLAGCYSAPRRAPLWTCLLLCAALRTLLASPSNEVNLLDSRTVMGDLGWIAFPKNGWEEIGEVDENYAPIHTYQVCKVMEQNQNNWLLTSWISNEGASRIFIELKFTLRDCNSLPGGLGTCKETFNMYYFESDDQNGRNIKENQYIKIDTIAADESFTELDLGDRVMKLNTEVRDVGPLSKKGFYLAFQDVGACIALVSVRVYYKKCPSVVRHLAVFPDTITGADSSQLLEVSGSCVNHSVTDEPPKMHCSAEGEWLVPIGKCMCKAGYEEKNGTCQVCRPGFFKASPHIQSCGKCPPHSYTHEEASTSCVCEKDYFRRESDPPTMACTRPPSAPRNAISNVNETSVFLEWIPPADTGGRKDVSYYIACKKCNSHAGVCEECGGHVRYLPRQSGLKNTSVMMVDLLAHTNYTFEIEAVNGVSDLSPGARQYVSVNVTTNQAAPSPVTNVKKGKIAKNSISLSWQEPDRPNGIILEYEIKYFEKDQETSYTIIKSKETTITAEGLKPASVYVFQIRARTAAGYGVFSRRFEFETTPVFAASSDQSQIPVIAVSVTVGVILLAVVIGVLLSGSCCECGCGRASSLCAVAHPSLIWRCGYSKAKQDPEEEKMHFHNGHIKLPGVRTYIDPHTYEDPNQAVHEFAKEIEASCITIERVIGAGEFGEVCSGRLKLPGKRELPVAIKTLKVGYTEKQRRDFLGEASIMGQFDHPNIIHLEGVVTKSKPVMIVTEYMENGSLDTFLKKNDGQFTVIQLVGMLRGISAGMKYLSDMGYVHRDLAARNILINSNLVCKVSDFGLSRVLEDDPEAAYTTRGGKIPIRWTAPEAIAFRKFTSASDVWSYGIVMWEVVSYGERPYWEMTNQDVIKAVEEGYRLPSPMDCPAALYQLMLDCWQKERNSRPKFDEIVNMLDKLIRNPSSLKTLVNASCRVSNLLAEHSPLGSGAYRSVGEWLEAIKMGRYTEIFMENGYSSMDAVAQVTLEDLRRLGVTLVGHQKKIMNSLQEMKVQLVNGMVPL

[6] = biological target: Tyrosine-protein kinase SYK (Homo sapiens, UniProt P43405)
[7] = biological target: Serine/threonine-protein kinase PAK 5 (Homo sapiens, UniProt Q9P286)
[8] = biological target: Mast/stem cell growth factor receptor Kit (Homo sapiens, UniProt P10721)
Chain of Mast/stem cell growth factor receptor Kit (P10721 whole entry): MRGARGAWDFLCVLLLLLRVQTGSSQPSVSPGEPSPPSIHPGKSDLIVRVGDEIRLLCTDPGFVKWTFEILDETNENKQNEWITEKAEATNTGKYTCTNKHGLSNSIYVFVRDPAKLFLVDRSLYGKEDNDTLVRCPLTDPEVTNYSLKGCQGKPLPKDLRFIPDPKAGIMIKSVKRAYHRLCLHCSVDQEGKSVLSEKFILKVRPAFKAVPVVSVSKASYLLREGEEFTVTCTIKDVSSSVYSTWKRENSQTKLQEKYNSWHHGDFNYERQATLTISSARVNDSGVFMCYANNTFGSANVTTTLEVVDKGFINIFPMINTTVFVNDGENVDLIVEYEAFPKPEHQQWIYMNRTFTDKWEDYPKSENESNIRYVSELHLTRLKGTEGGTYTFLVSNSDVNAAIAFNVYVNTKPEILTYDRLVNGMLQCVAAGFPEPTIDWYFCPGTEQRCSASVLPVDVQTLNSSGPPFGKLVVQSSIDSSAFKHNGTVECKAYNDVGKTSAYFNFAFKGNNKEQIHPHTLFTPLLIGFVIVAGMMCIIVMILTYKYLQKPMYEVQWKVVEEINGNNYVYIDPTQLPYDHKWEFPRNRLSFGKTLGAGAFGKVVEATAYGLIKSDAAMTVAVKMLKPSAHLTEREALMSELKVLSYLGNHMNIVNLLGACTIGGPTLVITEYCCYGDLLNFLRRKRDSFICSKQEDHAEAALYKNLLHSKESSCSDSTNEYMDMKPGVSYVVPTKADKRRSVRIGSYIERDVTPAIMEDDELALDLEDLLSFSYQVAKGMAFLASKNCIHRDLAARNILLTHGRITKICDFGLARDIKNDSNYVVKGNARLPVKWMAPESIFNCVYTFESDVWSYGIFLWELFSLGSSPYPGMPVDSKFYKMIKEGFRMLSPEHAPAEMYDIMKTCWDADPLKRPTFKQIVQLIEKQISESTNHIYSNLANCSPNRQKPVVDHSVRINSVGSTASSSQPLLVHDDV

[9] = biological target: 5'-AMP-activated protein kinase catalytic subunit alpha-1 (Homo sapiens, UniProt Q13131)
Chain of 5'-AMP-activated protein kinase catalytic subunit alpha-1 (Q13131 whole entry): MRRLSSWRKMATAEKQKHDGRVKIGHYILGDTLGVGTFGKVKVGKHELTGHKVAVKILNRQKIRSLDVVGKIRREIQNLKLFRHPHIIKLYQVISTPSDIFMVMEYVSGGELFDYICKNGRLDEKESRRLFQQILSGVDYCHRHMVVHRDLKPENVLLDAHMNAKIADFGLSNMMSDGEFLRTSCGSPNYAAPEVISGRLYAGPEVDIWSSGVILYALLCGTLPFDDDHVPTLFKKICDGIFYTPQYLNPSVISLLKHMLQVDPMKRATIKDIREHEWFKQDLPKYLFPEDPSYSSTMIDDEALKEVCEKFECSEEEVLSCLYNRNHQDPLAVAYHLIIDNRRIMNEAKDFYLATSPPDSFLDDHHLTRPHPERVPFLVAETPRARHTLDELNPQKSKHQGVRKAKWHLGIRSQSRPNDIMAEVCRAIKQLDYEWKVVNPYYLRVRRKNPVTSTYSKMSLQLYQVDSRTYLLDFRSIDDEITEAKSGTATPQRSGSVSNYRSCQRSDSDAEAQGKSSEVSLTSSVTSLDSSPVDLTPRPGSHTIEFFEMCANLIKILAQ

[10] = biological target: Fibroblast growth factor receptor 2 (Homo sapiens, UniProt P21802)
Chain of Fibroblast growth factor receptor 2 (P21802 whole entry): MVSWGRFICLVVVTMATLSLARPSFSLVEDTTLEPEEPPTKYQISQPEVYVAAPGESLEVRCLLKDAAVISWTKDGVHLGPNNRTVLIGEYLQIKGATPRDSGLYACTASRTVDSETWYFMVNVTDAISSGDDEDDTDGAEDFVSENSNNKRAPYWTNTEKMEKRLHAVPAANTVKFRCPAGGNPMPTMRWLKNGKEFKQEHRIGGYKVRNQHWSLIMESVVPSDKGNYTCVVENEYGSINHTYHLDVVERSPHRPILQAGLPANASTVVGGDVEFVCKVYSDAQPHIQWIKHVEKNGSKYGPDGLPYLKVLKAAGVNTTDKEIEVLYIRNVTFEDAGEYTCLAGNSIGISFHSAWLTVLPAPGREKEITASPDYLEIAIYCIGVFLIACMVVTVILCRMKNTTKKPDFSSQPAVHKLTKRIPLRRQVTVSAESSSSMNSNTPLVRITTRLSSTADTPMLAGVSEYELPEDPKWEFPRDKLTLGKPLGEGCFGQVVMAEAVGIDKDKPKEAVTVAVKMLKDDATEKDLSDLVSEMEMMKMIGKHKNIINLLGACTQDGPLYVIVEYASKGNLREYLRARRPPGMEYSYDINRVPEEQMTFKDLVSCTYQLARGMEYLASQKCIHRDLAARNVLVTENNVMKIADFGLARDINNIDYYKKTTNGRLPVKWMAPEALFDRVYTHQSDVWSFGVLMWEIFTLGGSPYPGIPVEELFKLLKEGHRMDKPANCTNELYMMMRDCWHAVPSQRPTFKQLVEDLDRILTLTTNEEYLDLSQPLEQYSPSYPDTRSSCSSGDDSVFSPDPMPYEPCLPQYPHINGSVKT

[11] = biological target: MAP kinase-interacting serine/threonine-protein kinase 2 (Homo sapiens, UniProt Q9HBH9)
Chain of MAP kinase-interacting serine/threonine-protein kinase 2 (Q9HBH9 whole entry): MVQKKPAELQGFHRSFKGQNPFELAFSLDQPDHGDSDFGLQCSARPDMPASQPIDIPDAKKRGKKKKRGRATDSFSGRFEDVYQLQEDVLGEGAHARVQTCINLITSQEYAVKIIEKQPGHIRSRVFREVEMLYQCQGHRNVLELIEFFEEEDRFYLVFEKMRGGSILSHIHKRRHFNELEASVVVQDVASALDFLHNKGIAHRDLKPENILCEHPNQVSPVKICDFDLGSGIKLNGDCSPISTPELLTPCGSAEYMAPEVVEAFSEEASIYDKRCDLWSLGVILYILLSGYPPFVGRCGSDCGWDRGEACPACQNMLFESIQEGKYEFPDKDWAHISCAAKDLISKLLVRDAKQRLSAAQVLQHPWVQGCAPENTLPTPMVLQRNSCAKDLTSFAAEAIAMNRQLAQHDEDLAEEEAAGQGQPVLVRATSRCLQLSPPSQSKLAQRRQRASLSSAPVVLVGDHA

Measured: Kd

Chain of Serine/threonine-protein kinase PAK 4 (O96013 whole entry): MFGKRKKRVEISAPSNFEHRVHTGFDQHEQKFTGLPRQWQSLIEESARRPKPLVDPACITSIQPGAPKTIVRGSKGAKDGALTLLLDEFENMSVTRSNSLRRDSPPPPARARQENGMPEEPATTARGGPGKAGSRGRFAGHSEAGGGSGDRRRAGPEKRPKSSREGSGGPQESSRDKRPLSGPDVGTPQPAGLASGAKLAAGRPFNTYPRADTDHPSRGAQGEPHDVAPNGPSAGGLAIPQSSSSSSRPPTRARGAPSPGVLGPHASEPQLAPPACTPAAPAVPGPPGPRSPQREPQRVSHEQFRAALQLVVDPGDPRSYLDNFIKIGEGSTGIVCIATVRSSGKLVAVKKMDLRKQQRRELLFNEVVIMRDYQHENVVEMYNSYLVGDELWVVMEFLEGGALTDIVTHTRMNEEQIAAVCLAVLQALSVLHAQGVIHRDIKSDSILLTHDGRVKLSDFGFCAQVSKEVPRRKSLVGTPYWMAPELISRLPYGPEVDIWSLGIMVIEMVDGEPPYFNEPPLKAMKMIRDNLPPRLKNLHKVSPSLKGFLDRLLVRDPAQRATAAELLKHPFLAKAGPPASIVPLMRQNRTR

C#Cc1cccc(Nc2ncnc3cc(OCCOC)c(OCCOC)cc23)c1 [ERLOTINIB]
not listed: [10] | [11]
Not Active: all other assays above

Cc1ccc(NC(=O)c2ccc(CN3CCN(C)CC3)cc2)cc1Nc1nccc(-c2cccnc2)n1 [IMATINIB]
not listed: [3] | [6] | [8]
Not Active: all other assays above

O=c1ncn2nc(Sc3ccc(F)cc3F)ccc2c1-c1c(Cl)cccc1Cl [NEFLAMAPIMOD]
not listed: [2] | Ephrin type-A receptor 5
Not Active: all other assays above

CCOc1cc2ncc(C#N)c(Nc3ccc(F)c(Cl)c3)c2cc1NC(=O)/C=C/CN(C)C [PELITINIB]
not listed: [2] | [3] | [5] | Ephrin type-A receptor 5 | [6]
Not Active: all other assays above

Oc1ccc(-c2nc(-c3ccc(F)cc3)c(-c3ccncc3)[nH]2)cc1 [SB-202190]
Not Active: all assays above

C[S+]([O-])c1ccc(-c2nc(-c3ccc(F)cc3)c(-c3ccncc3)[nH]2)cc1 (stereo not given) [SB-203580]
Not Active: all assays above

CC[C@H](CO)Nc1nc(NCc2ccccc2)c2ncn(C(C)C)c2n1 [SELICICLIB]
Not Active: all assays above

Oc1c2ccccc2c2c3c(cccc13)N=N2 [SP-600125]
not listed: Aurora kinase C | [6] | [11]
Not Active: all other assays above

COc1cc2c(N3CCN(C(=O)Nc4ccc(OC(C)C)cc4)CC3)ncnc2cc1OCCCN1CCCCC1 [TANDUTINIB]
not listed: [5] | [8]
Not Active: all other assays above
